From article PMC13128454, “Mutant p53 protein accumulation is selectively targetable by proximity-inducing drugs” (Nature Chemical Biology, 2025)
“And” between values parts separate entries of the source, which are not always exact repeats. Identical values can stand only once. Like-named read-outs stand apart in the source and are kept apart here.

Experiments:
Type in all cases: cell-based
[1] = system: Halo–p53-Y220C ΔTAD–mCherry 293T cells; assay: caspase 3/7 glo; settings: for mean_norm (caspase 3/7 glo): Cell_Line Y220C, normalized to Concentration 0; for raw caspase 3/7 glo signal, single replicate: Y220C
Experimental: (§1) Cells were plated in 384-well plates (typically 1,500 cells per well) with varying concentrations of compounds with a total volume of 50 μl per well. After 1 day, caspase 3/7 glo reagent (Promega) was added following the manufacturer’s protocol and read out using an EnVision 2105 multimode plate reader.

[2] = system: parental 293T cells; assay: caspase 3/7 glo; settings: for mean_norm (caspase 3/7 glo): Cell_Line WT, normalized to Concentration 0; for raw caspase 3/7 glo signal, single replicate: WT
Experimental: as §1

[3] = system: Halo–p53-Y220C ΔTAD–mCherry 293T cells; assay: cell-cycle analysis (DNA content, DAPI flow cytometry); parameters: 4N / 8N / Right_of_Gate1 (replicates) / Right_of_Gate2 (replicates) / 2N: unit not given here; settings: 1 day; for 2N / 4N / 8N / Right_of_Gate1 (replicates) / Right_of_Gate2 (replicates): Y220C
Experimental: Cells were split into a 10-cm dish at low confluency (20%) and grown overnight. Cells were synchronized using overnight treatment with palbociclib (150 nM), washed and split into a six-well plate for treatment with compound for 24 h. Cells were harvested by trypsinization, washed twice with cold 1× PBS, fixed by dropwise addition of ice-cold 70% ethanol while vortexing and incubated overnight (4 °C). Fixed samples were centrifuged at 1,000g for 5 min and 70% ethanol was removed. Cells were washed twice with 1× PBS + 1% BSA before DNA labeling with 1 µg ml^−1 DAPI for 10 min at room temperature, before being analyzed for DNA content by flow cytometry (Beckman CytoFLEX LX).

[4] = system: p53 luciferase transcriptional reporter in Huh7 cells; assay: p53 luciferase reporter assay; settings: for p53 luciferase reporter signal (normalized), replicates: Huh7
Experimental: (§2) Huh7 and MFE319 cell lines stably expressing a p53 reporter (Addgene, 90363)[59] were generated. Cells were plated in 384-well plates (1,500 cells per well) and treated with varying concentrations of compound. Then, 16 h after treatment, firefly luciferase substrate was added to the cells and luminescence was monitored using an EnVision 2105 multimode plate reader.

[5] = system: p53 luciferase transcriptional reporter in MFE319 cells; assay: p53 luciferase reporter assay; settings: for p53 luciferase reporter signal (normalized), replicates: MFE319
Experimental: as §2

[6] = CellTiter-Glo cell viability; settings: human, BxPC-3 cells, BXPC3, 4 day, read-out: mean_norm (normalized viability)
Experimental: Cells were plated in 384-well plates (typically 1,500 cells per well) with varying concentrations of compounds, with a total volume of 50 μl per well. CTG reagent was added (25 μl) to the solutions, mixed and read out using an EnVision 2105 multimode plate reader.

[7] = Conc 0.38 (unit not given; p53-01 in μM, BI2536 in nM)
[8] = Conc 0.75 (unit not given; p53-01 in μM, BI2536 in nM)
[9] = Conc 1.50 (unit not given; p53-01 in μM, BI2536 in nM)

In the case of CC[C@@H]1C(=O)N(C)c2cnc(Nc3ccc(C(=O)NCCOCCOCCOCCOCCC(=O)N4CCC(Nc5cccc6c5cc(C#CCNc5ccc(S(C)(=O)=O)cc5OC)n6CC(F)(F)F)CC4)cc3OC)nc2N1C1CCCC1 [p53-01, PMV6-PEG4-BI2536], the “mean_norm (caspase 3/7 glo)” value ([1]; Concentration 19.5312) was 1.044, the “mean_norm (caspase 3/7 glo)” value ([1]; Concentration 39.0625) was 0.9705 and the “mean_norm (caspase 3/7 glo)” value ([1]; Concentration 78.125) was 0.9927. For the same molecule, the “mean_norm (caspase 3/7 glo)” value ([1]; Concentration 156.25) was 0.9639, the “mean_norm (caspase 3/7 glo)” value ([1]; Concentration 312.5) was 0.9272 and the “mean_norm (caspase 3/7 glo)” value ([1]; Concentration 625) was 0.8899. For the same molecule, the “mean_norm (caspase 3/7 glo)” value ([1]; Concentration 1250) was 1.234, the “mean_norm (caspase 3/7 glo)” value ([1]; Concentration 2500) was 2.011 and the “mean_norm (caspase 3/7 glo)” value ([1]; Concentration 5000) was 2.316. The “mean_norm (caspase 3/7 glo)” value ([1]; Concentration 10000) was 2.222, the “raw caspase 3/7 glo signal, single replicate” value (from here on “raw caspase 3/7 glo signal”) ([1]; Concentration 19.5312) was 122690 and 136337 and 118028 and 144163 and the “raw caspase 3/7 glo signal” value ([1]; Concentration 39.0625) was 117294 and 127747 and 106194 and 133419. For the same molecule, the “raw caspase 3/7 glo signal” value ([1]; Concentration 78.125) was 123437 and 120512 and 118467 and 133301, the “raw caspase 3/7 glo signal” value ([1]; Concentration 156.25) was 105036 and 125984 and 107588 and 142722 and the “raw caspase 3/7 glo signal” value ([1]; Concentration 312.5) was 120420 and 114761 and 112118 and 115705. For the same molecule, the “raw caspase 3/7 glo signal” value ([1]; Concentration 625) was 92711 and 123269 and 91753 and 136660, the “raw caspase 3/7 glo signal” value ([1]; Concentration 1250) was 148294 and 147349 and 143892 and 176603 and the “raw caspase 3/7 glo signal” value ([1]; Concentration 2500) was 271302 and 236256 and 229038 and 267460. For the same molecule, the “raw caspase 3/7 glo signal” value ([1]; Concentration 5000) was 327582 and 262469 and 277595 and 289089, the “raw caspase 3/7 glo signal” value ([1]; Concentration 10000) was 286008 and 259961 and 264959 and 298921 and the “induction of apoptosis” value ([1]; versus parental 293T, caspase 3/7 glo and annexin–PI, 1 day) was “differentially induced apoptosis”. The “mean_norm (caspase 3/7 glo)” value ([2]; Concentration 19.5312) was 1.032, the “mean_norm (caspase 3/7 glo)” value ([2]; Concentration 39.0625) was 0.9788 and the “mean_norm (caspase 3/7 glo)” value ([2]; Concentration 78.125) was 1.009. For the same molecule, the “mean_norm (caspase 3/7 glo)” value ([2]; Concentration 156.25) was 0.9403, the “mean_norm (caspase 3/7 glo)” value ([2]; Concentration 312.5) was 0.9336 and the “mean_norm (caspase 3/7 glo)” value ([2]; Concentration 625) was 0.8748. The “mean_norm (caspase 3/7 glo)” value ([2]; Concentration 1250) was 1.007, the “mean_norm (caspase 3/7 glo)” value ([2]; Concentration 2500) was 1.185 and the “mean_norm (caspase 3/7 glo)” value ([2]; Concentration 5000) was 1.4986. The “mean_norm (caspase 3/7 glo)” value ([2]; Concentration 10000) was 1.763, the “raw caspase 3/7 glo signal” value ([2]; Concentration 19.5312) was 133494 and 117337 and 138819 and 114789 and the “raw caspase 3/7 glo signal” value ([2]; Concentration 39.0625) was 123804 and 109630 and 139391 and 105438. For the same molecule, the “raw caspase 3/7 glo signal” value ([2]; Concentration 78.125) was 123731 and 127401 and 120215 and 121439, the “raw caspase 3/7 glo signal” value ([2]; Concentration 156.25) was 127240 and 99863 and 130913 and 101408 and the “raw caspase 3/7 glo signal” value ([2]; Concentration 312.5) was 120672 and 107314 and 116046 and 112110. For the same molecule, the “raw caspase 3/7 glo signal” value ([2]; Concentration 625) was 120568 and 89735 and 125147 and 91991, the “raw caspase 3/7 glo signal” value ([2]; Concentration 1250) was 122108 and 116864 and 133954 and 118859 and the “raw caspase 3/7 glo signal” value ([2]; Concentration 2500) was 139477 and 137713 and 153198 and 148518. The “raw caspase 3/7 glo signal” value ([2]; Concentration 5000) was 207130 and 170945 and 175970 and 178176, the “raw caspase 3/7 glo signal” value ([2]; Concentration 10000) was 233886 and 204323 and 214988 and 207998 and the “DNA content” value ([3]; 0.75 μM, synchronized cells) was “accumulation of Halo–p53-Y220C ΔTAD–mCherry 293T cells with 4 N DNA content”. For the same molecule, the “cells with genome doubling (8 N DNA content)” value ([3]; 1.5 μM) was ~ 60%, the 2N [3, 7] was 58.97 and the 4N [3, 7] was 39.03. For the same molecule, the 8N [3, 7] was 2.00, the “Right_of_Gate1 (replicates)” value [3, 7] was 41.03 and 37.34 and 37.12 and the “Right_of_Gate2 (replicates)” value [3, 7] was 2.00 and 2.08 and 2.06. It also gave a 2N [3, 8] of 39.09, a 4N [3, 8] of 57.44 and a 8N [3, 8] of 3.47. For the same molecule, the “Right_of_Gate1 (replicates)” value [3, 8] was 60.91 and 56.52 and 59.94, the “Right_of_Gate2 (replicates)” value [3, 8] was 3.47 and 3.35 and 3.58 and the 2N [3, 9] was 1.94. The 4N [3, 9] was 38.53, the 8N [3, 9] was 59.53 and the “Right_of_Gate1 (replicates)” value [3, 9] was 98.06 (2×) and 98.33. For the same molecule, the “Right_of_Gate2 (replicates)” value [3, 9] was 59.53 and 59.10 and 58.35, the “induction of p53 reporter” value ([4]; 16 h, PMV6 at doses of 1.25–10 μM) was “no such effect” and the “p53 luciferase reporter signal (normalized), replicates” value ([4]; log Concentration (pM) 4.59176) was 0.9363 (2×) and 1.029 and 0.989 (2×) and 0.8835. For the same molecule, the “p53 luciferase reporter signal (normalized), replicates” value ([4]; log Concentration (pM) 4.89279) was 1.081 and 0.9758 and 1.0022 and 1.095 and 1.147 and 0.9363, the “p53 luciferase reporter signal (normalized), replicates” value ([4]; log Concentration (pM) 5.19382) was 0.8967 and 0.9231 and 0.9363 and 0.9758 and 1.095 and 1.081 and the “p53 luciferase reporter signal (normalized), replicates” value ([4]; log Concentration (pM) 5.49485) was 1.015 and 0.9363 and 1.029 and 1.0022 and 1.108 and 1.095. For the same molecule, the “p53 luciferase reporter signal (normalized), replicates” value ([4]; log Concentration (pM) 5.79588) was 1.055 (2×) and 1.095 and 0.9495 and 0.9231 (2×), the “p53 luciferase reporter signal (normalized), replicates” value ([4]; log Concentration (pM) 6.09691) was 0.9099 and 0.9626 and 0.9231 and 1.0022 and 0.9758 and 0.8835 and the “p53 luciferase reporter signal (normalized), replicates” value ([4]; log Concentration (pM) 6.39794) was 0.9495 and 1.029 and 0.9758 and 1.0022 and 1.015 and 1.042. The “p53 luciferase reporter signal (normalized), replicates” value ([4]; log Concentration (pM) 6.69897) was 0.9363 and 0.9231 and 1.042 and 1.095 and 1.068 and 0.8835, the “p53 luciferase reporter signal (normalized), replicates” value ([4]; log Concentration (pM) 7) was 0.9363 and 1.0022 (3×) and 1.015 and 0.9758 and the “induction of p53 reporter” value ([5]; 16 h) was “no induction of luciferase activity”. The “p53 luciferase reporter signal (normalized), replicates” value ([5]; log Concentration (pM) 4.59176) was 0.9836 and 1.068 and 1.04 and 1.096 and 1.012 and 0.9977, the “p53 luciferase reporter signal (normalized), replicates” value ([5]; log Concentration (pM) 4.89279) was 1.026 and 1.11 and 0.9977 and 0.9555 and 1.04 and 1.096 and the “p53 luciferase reporter signal (normalized), replicates” value ([5]; log Concentration (pM) 5.19382) was 0.9836 and 1.11 and 1.04 and 1.082 (2×) and 1.096. For the same molecule, the “p53 luciferase reporter signal (normalized), replicates” value ([5]; log Concentration (pM) 5.49485) was 0.9696 and 0.9977 and 1.012 (2×) and 1.082 and 1.04, the “p53 luciferase reporter signal (normalized), replicates” value ([5]; log Concentration (pM) 5.79588) was 0.9696 and 1.096 (3×) and 1.068 and 0.9274 and the “p53 luciferase reporter signal (normalized), replicates” value ([5]; log Concentration (pM) 6.09691) was 1.152 and 1.068 and 1.012 (2×) and 1.124 and 1.04. For the same molecule, the “p53 luciferase reporter signal (normalized), replicates” value ([5]; log Concentration (pM) 6.39794) was 0.9977 (2×) and 1.068 and 1.096 and 1.012 and 0.9836, the “p53 luciferase reporter signal (normalized), replicates” value ([5]; log Concentration (pM) 6.69897) was 1.012 (4×) and 0.9977 and 1.04 and the “p53 luciferase reporter signal (normalized), replicates” value ([5]; log Concentration (pM) 7) was 1.054 and 0.9836 (2×) and 1.082 (2×) and 0.8431. It also gave a viability at 4 day ([6]; Concentration 39.0625) of 96%, a viability at 4 day ([6]; Concentration 78.125) of 94.9% and a viability at 4 day ([6]; Concentration 156.25) of 99%. For the same molecule, the viability at 4 day ([6]; Concentration 312.5) was 91%, the viability at 4 day ([6]; Concentration 10000) was 44% and the viability at 4 day ([6]; Concentration 20000) was 25.6%.
